From patent US20070105779A1, “Isolated, ssx-2 and ssx-2 related peptides useful as hla binders and ctl epitopes, and uses thereof” (priority 2002, published 2007)
Several values for one entry are separate records, joined by “and”; a condition that tells them apart may be missing. Equal values may be shown once. No end group written: not given here.

Columns and labels:
T cell clone LAU 50/4D7 = experiment: 51Cr release assay, T2 cells pulsed with serial dilutions of peptide, recognition by CTL clone LAU 50/4D7; type: cell-based, human; conditions: for recognition by CTL clone LAU 50/4D7 (in words): 51Cr release assay; for EC50: T2 cells pulsed with peptide, read-out: 50% maximal lysis
Procedure: CTL clone LAU 50/4D7 was used in a ^51Cr release assay using standard methods. In brief, cells of target cell line Me275, which is a melanoma line derived from the same patient as was LAU 50/4D7, were labeled with ^51Cr for one hour at 37° C., as were control cells “T2.” This line, more accurately referred to as “CEMx721.T2,” is described by Salter, et al., Immunogenetics 21:235-248 (1985).
Cells were washed, three times, and then were incubated with the LAU 50/4D7 cells, at various effector:target ratios (0.1/1, 1/1, 10/1, 100/1) Four hours after incubation at 37° C., chromium in the supernatant was measured. Percent specific lysis was calculated as: [formula]
To determine T cell recognition of the peptides, standard ^51Cr release assays were performed using T2 cells pulsed with serial dilutions of each peptide. The peptide dose required to induce half maximal lysis was determined.

HLA-A2 = target: T1, HLA-A2 (Homo sapiens, UniProt P04439, D140Y/D185E/D98H/E176V/E277Q/G131W/G231S/I119V/I121R/I166T/I218V/L300P/L318F/N151K/N90K/P208A/P217A/Q86G/Q94H/R138H/R169H/T345S); experiment: functional competition assay for peptide binding to HLA-A2 (inhibition of tyrosinase 368-376 recognition by CTL clone LAU 156/34 on T2 cells); type: cell-based; conditions: for IC50: competitor peptide concentration for 50% inhibition of target cell lysis
T1 construct: using T2 cells, because these express HLA-A2; endogenous in cells; host or cells: T2 cells
Procedure: T cell recognition by clone LAU 50/4D7 and binding to HLA-A2 by these peptides were determined experimentally. Peptide binding to HLA-A2 was determined in a functional competition assay.

T cell clone LAU50/4D7 = experiment: lysis assay, T2 cells pulsed with 1 μM peptide, T cell clone LAU50/4D7; type: cell-based, human; conditions: peptide 1 μM, 37° C. 1 hour, T2 targets, 4 hours with T cells
Procedure: In these assays, T2 cells were used as the target, and were incubated with each of the listed peptides, at a concentration of 1 μM, at 37° C. for 1 hour. The T2 cells were then washed to remove excess peptides, and the T cells were incubated with the peptide pulsed target T2 cells for 4 hours at 37° C.

LAU 50/4D7 = experiment: 51Cr release assay with twelve known HLA-A2 binders, peptide specificity of LAU 50/4D7; type: cell-based, human; conditions: HLA-A2+ target cells, peptide added after 51Cr labeling
Procedure: In these assays, following ^51Cr labeling of the HLA-A2^+ target cells, peptides were added and then lysis was determined, as described supra.

[1] = relative to SEQ ID NO: 1 (=1), concentration for 50% inhibition of target cell lysis
[2] = second table, similar assays, relative to SEQ ID NO: 1
[3] = relative to SEQ ID NO: 1 (=1), peptide dose for half maximal lysis, T2 cells, clone LAU 50/4D7

Molecule	recognition by CTL clone LAU 50/4D7 (in words) (T cell clone LAU 50/4D7)	EC50 (T cell clone LAU 50/4D7; clone LAU 50/4D7) [nM]	Relative Recognition (T cell clone LAU 50/4D7; relative to SEQ ID NO: 17 (=1))	IC50 (HLA-A2) [nM]	Relative Binding (HLA-A2; [1])	Relative Binding (HLA-A2; relative to SEQ ID NO: 17 (=1))	Relative Binding (HLA-A2; [2])	Relative Recognition (T cell clone LAU 50/4D7; [3])	Relative Recognition (T cell clone LAU 50/4D7; [2])	% Lysis (T cell clone LAU50/4D7)	recognition of known HLA-A2 presented peptides by LAU 50/4D7 (LAU 50/4D7)	recognition by CTL clone LAU 50/4D7 (in words) (T cell clone LAU 50/4D7; listed as 1)
AASEKIFYV [SEQ ID NO: 18]	at least equal to the natural peptide	0.06	1	–	–	–	–	–	–	–	–	–
CC[C@H](C)[C@H](NC(=O)[C@H](CCCCN)NC(=O)[C@@H]1CCCN1C(=O)[C@H](C)NC(=O)[C@H](C)NC(=O)[C@H](C)N)C(=O)N[C@@H](Cc1ccccc1)C(=O)N[C@@H](C)C(=O)N[C@@H](C)C(=O)O [SEQ ID NO: 6]	–	> 100	<10^−5	100	0.2	2	0.2	10^−5	<10^−5	–	–	–
CC[C@H](C)[C@H](NC(=O)[C@H](CCCCN)NC(=O)[C@H](CCC(=O)O)NC(=O)[C@H](CO)NC(=O)[C@H](C)NC(=O)[C@@H](N)CCCCN)C(=O)N[C@@H](Cc1ccccc1)C(=O)N[C@@H](Cc1ccc(O)cc1)C(=O)N[C@H](C(=O)O)C(C)C [SEQ ID NO: 17, reference compound]	in the same range as that of SEQ ID NO: 1	0.06	–	–	–	–	–	–	–	70% and 68%	–	–
AAAPAIFYA [SEQ ID NO: 4]	–	> 100	<10^−5	22	0.9	9	0.9	<10^−5	<10^−6	–	–	–
AAAPKAFYA [SEQ ID NO: 5]	–	0.3	0.2	200	0.1	1	0.1	0.05	0.06	–	–	–
AAGPKIFYA [SEQ ID NO: 2]	–	2	0.03	286	0.07	0.7	–	0.01	–	–	–	–
gp100208-217: known HLA-A2 binder peptide (TITDQVPFSV; UniProt P40967 208-217, looked up, fragment)	–	–	–	–	–	–	–	–	–	–	failed to recognize	–
AAAPKIFYA [SEQ ID NO: 1]	most active	0.02	3	20	1	10	–	1	–	–	–	at least equal to the natural peptide
AAAAKIFYA [SEQ ID NO: 3]	–	0.2	0.3	133	0.16	1.5	0.16	0.1	0.1	–	–	–
tyrosinase1-9: known HLA-A2 binder peptide (MLLAVLYCL; UniProt P14679 1-9, looked up, fragment)	–	–	–	–	–	–	–	–	–	–	failed to recognize	–
GLYDGMEHL [SEQ ID NO: 35, derives from MAGE-A10; HLA-A2; negative control]	–	–	–	–	–	–	–	–	–	2%	–	–
NY-ESO-1157-165: known HLA-A2 binder peptide	–	–	–	–	–	–	–	–	–	–	failed to recognize	–
gp100280-288: known HLA-A2 binder peptide	–	–	–	–	–	–	–	–	–	–	failed to recognize	–
